# According to patent publication US20040191172A1, “Preventive or therapeutic agents for dermatitis or alopecia, evaluation method of the agents, and transgenic mouse” (priority 2003, published 2004):
# Tested on: K5/IL-18 Tg (+) mice
# Experiment: Suppression of spontaneous dermatitis in K5/IL-18 transgenic (Tg (+)) mice, appearance and HE histopathology of back skin
# Type: in vivo
# Details: 1% (10 mg/mL) applied to back skin for consecutive seven days
# Source text: The spontaneous dermatitis (A) refers to an inflammation that reaches its peak approximately on the 8th to 12th day after birth of an IL-18-introduced mouse and disappears after about four weeks and that has been identified by the inventors of the present invention for the first time. Pathologically speaking, in this inflammation, acanthosis (epidermal thickening) , hyperkeratosis, and inflammatory cell infiltrations that neutrophilic leukocytes are contained in dermis can be observed in dermal tissue, a slight sponge state is present in the epidermal base, and abscess formation in the cuticle due to epidermal neutrophilic infiltrations is observed (FIG. 3).
# The evaluation method of the present invention can be performed as a method for screening agents for preventing/treating autoimmune dermatitis. The screening can be performed, for example, by the procedures of administrating an agent to be tested in either stage, before or after the occurrence of the peak of spontaneous dermatitis, and comparing mice without administration (control) in terms of the presence or the absence of peak occurrence, the size of the peak, the speed of peak disappearance or the like.
# Next, the agent of preventing/treating dermatitis of the present invention will be described more specifically by way of examples. […]
smiles,measurement,value
C[C@@H]1C[C@H]2[C@@H]3CCC4=CC(=O)C=C[C@]4(C)[C@@]3(F)[C@@H](O)C[C@]2(C)[C@@]1(O)C(=O)CO [dexamethasone],death from side effects (share of treated group),about a half
